Laboratory results published in article PMC3548936 (ACS chemical biology, 2012).

Assays:
[1] = tested on: VSV-G pseudotyped HIV particles (WT); assay: microbe, parasite or virus in culture; assay type: cell-based, HIV-1; settings: Human immunodeficiency virus 1, HOS, read-out: Antiviral IC50 ± SD (EC50), WT
[2] = tested on: VSV-G pseudotyped HIV particles (IN Y143R); assay type: cell-based, HIV-1; settings: read-out: Antiviral IC50 ± SD (EC50), Y143R
in vitro = settings: human

Compound: Cc1nnc(C(=O)NC(C)(C)c2nc(C(=O)NCc3ccc(F)cc3)c(O)c(=O)n2C)o1 [RAL, raltegravir]
- EC50 [1]: 0.004 ± 0.002 µM
- EC50 [2]: 0.21 ± 0.01 µM
- CC50 (in vitro): > 100 µM
